In patent publication US5491155A, “Substituted thiadiazoles, compositions containing them and their use as antimicrobial and marine antifouling agents” (The Dow Chemical Company, priority 1994, dated 1996) one finds MIC data, which are given here for two compounds.

Structures are written as SMILES. In brackets after ≈: the same amount, converted by molar mass. Read-outs that look alike come from different tables or passages of the source. Where only a bound is given, the exact number is not on record here.

In assay [1] the test system is Escherichia coli. Nature of the assay: MIC in nutrient agar, Escherichia coli. The format is cell-based, Escherichia coli (ATCC 11229). Particulars: Ec, 48 hours, read-out: Minimum Inhibitory Concentration (MIC). The protocol: (§1) The minimum inhibitory concentration (MIC) for the compounds listed in Table I is determined for bacteria, using nutrient agar, and 7 yeast and fungi, using malt yeast agar. A one percent solution of the test compound is prepared in a mixture of acetone and water.
(§2) Nutrient agar is prepared at pH 6.8, representing a neutral medium, and at pH 8.2, representing an alkaline medium. The nutrient agars are prepared by adding 23 g of nutrient agar to one-liter of deionized water. In addition, the alkaline medium is prepared by adjusting a 0.04M solution of N-(tris-(hydroxymethyl)methyl)glycine buffered deionized water with concentrated sodium hydroxide to a pH of 8.5.
(§3) The test tubes containing the agar are cooled in a water bath until the temperature of the agar is 48° C. Then, an appropriate amount of the one percent solution of the test compound is added (except in the controls where no compound is added) to the respective test tubes so that the final concentrations are 500, 250, 100, 50, 25, 10, 2.5, 1.0 and zero parts per million of the test compound in the agar, thus having a known concentration of test compound dispersed therein. The contents of the test tubes are then transferred to respective petri plates. After drying for 24 hours, the petri plates containing nutrient agar are inoculated with bacteria and those containing malt yeast agar are inoculated with yeast and fungi.
(§4) The inoculation with bacteria is accomplished by using the following procedure. Twenty-four hour-cultures of each of the bacteria are prepared by incubating the respective bacteria in tubes containing nutrient broth for 24 hours at 30° C. in a shaker. Dilutions of each of the 24 hour-cultures are made so that nine separate suspensions (one for each of the nine test bacteria) are made, each containing 10^8 colony forming units (CFU) per mL of suspension of a particular bacteria. Aliquots of 0.3 mL of each of the bacterial suspensions are used to fill the individual wells of Steer's Replicator. For each microbial suspension, 0.3 mL was used to fill three wells (i.e., three wells of 0.3 mL each) so that for the nine different bacteria, 27 wells are filled. The Steer's Replicator is then used to inoculate both the neutral and alkaline pH nutrient agar petri plates.
(§5) The inoculated petri plates are incubated at 30° C. for 48 hours and then read to determine if the test compound which is incorporated into the agar prevented growth of the respective bacteria.
(§6) Table II lists the bacteria, yeast and fungi used in the MIC test described above along with their respective American Type Culture Collection (ATCC) identification numbers.
(§7) In Tables III and IV, the MIC values of the compounds described in Table I as compared to the MIC of a standard commercial preservative (with 1-(3-chloroalkyl)-3,5,7-triaza-1-azoniaadamantane chloride as the active agent and referred to in Tables III and IV as "STANDARD I") are set forth for the bacteria organisms and yeast/fungi organisms which are listed in Table II.

Assay [2] has as its system Aureobasidium pullulan. The experiment in a line: MIC in malt yeast agar, Aureobasidium pullulan. The format is cell-based, Aureobasidium pullulan (ATCC 16622). To be noted: Ap; malt yeast agar; 30° C.; 72 hours for fungi; read-out: Minimum Inhibitory Concentration (MIC). The protocol: as §1
(§8) Malt yeast agar is prepared by adding 3 g yeast extract and 45 g malt agar per liter of deionized water. The specific agar is dispensed in 30 mL aliquots into 25×200 mm test tubes, capped and autoclaved for 15 minutes at 115° C.
as §3
(§9) The inoculation with the yeast and fungi is accomplished as follows. Cultures of yeast and fungi are incubated for seven days on malt yeast agar at 30° C. These cultures are used to prepare suspensions by the following procedure. A suspension of each organism is prepared by adding 10 mL of sterile saline and 10 microliters of octylphenoxy polyethoxy ethanol to the agar slant of yeast or fungi. The sterile saline/octylphenoxy polyethoxy ethanol solution is then agitated with a sterile swab to suspend the microorganism grown on the slant. Each resulting suspension is diluted into sterile saline (1 part suspension: 9 parts sterile saline). Aliquots of these dilutions are placed in individual wells of Steer's Replicator and petri plates inoculated as previously described. The petri plates are incubated at 30° C. and read after 48 hours for yeast and 72 hours for fungi.
as §6, §7

The test system of assay [3] is Bacillus subtilis. The experiment in a line: MIC in nutrient agar, Bacillus subtilis. To be noted: Bs, 48 hours, read-out: Minimum Inhibitory Concentration (MIC). It counts as cell-based, Bacillus subtilis (ATCC 8473). The protocol:
as §1, §2, §3, §4, §5, §6, §7

Assay [4] deals with Aspergillus niger. Nature of the assay: MIC in malt yeast agar, Aspergillus niger. The format is cell-based, Aspergillus niger (ATCC 16404). Particulars: An; malt yeast agar; 30° C.; 72 hours for fungi; read-out: Minimum Inhibitory Concentration (MIC). As for the experimental part:
as §1, §8, §3, §9, §6, §7

The subject of assay [5] is Pseudomonas aeruginosa. Nature of the assay: MIC in nutrient agar, Pseudomonas aeruginosa (Pa). It counts as cell-based, Pseudomonas aeruginosa (ATCC 10145). Particulars: Pa, 48 hours, read-out: Minimum Inhibitory Concentration (MIC). As for the experimental part: as §1, §2, §3, §4, §5, §6, §7
The subject of assay [6] is Salmonella choleraesuis. The experiment in a line: MIC in nutrient agar, Salmonella choleraesuis. The format is cell-based, Salmonella choleraesuis (ATCC 10708). To be noted: Salmonella enterica, Sc, 48 hours, read-out: Minimum Inhibitory Concentration (MIC). As for the experimental part: as §1, §2, §3, §4, §5, §6, §7
In assay [7] the test system is Trichoderma viride. The experiment in a line: MIC in malt yeast agar, Trichoderma viride. It counts as cell-based, Trichoderma viride (ATCC 8678). To be noted: Tv; malt yeast agar; 30° C.; 72 hours for fungi; read-out: Minimum Inhibitory Concentration (MIC). The protocol:
as §1, §8, §3, §9, §6, §7

Assay [8] has as its system Klebsiella pneumonias. The experiment in a line: MIC in nutrient agar, Klebsiella pneumonias. The format is cell-based, Klebsiella pneumonias (ATCC 8308). Particulars: Kp, 48 hours, read-out: Minimum Inhibitory Concentration (MIC). As for the experimental part:
as §1, §2, §3, §4, §5, §6, §7

Regarding `N#CSc1nsnc1SC#N` [Example 2, Bis(thiocyanato)-1,2,5-thiadiazole], the MIC in assay [1] (pH 6.8, 30° C.) is 25 µg/mL (≈ 125 µM); in assay [1] (pH 8.2, 30° C.), 50 µg/mL (≈ 250 µM); in assay [2], under 1 µg/mL; in assay [3] (pH 6.8, 30° C.), 25 µg/mL (≈ 125 µM); in assay [3] (pH 8.2, 30° C.) it was 100 µg/mL (≈ 499 µM); in assay [4], under 1 µg/mL. Besides, the MIC in assay [5] (pH 6.8, 30° C.) was 50 µg/mL (≈ 250 µM); in assay [5] (pH 8.2, 30° C.), 250 µg/mL (≈ 1250 µM); in assay [6] (pH 6.8, 30° C.), 25 µg/mL (≈ 125 µM); in assay [6] (pH 8.2, 30° C.), 100 µg/mL (≈ 499 µM); in assay [7] it was 5 µg/mL (≈ 25 µM); in assay [8] (pH 6.8, 30° C.), 25 µg/mL (≈ 125 µM). The MIC in assay [8] (pH 8.2, 30° C.) was 250 µg/mL (≈ 1250 µM).

In the case of `N#CSCSc1nsnc1SCSC#N` [Example 4, Bis(thiomethylthiocyanato)-1,2,5-thiadiazole], the MIC in assay [1] (pH 6.8, 30° C.) was 25 µg/mL (≈ 85.5 µM); in assay [1] (pH 8.2, 30° C.), under 10 µg/mL; in assay [2], under 2.5 µg/mL; in assay [3] (pH 6.8, 30° C.), under 10 µg/mL; in assay [3] (pH 8.2, 30° C.) it was under 10 µg/mL; in assay [4] it was under 2.5 µg/mL. Moreover, the MIC is under 10 µg/mL in assay [5] (pH 6.8, 30° C.); under 10 µg/mL in assay [5] (pH 8.2, 30° C.); 25 µg/mL (≈ 85.5 µM) in assay [6] (pH 6.8, 30° C.); 25 µg/mL (≈ 85.5 µM) in assay [6] (pH 8.2, 30° C.); 10 µg/mL (≈ 34.2 µM) in assay [7]; under 10 µg/mL in assay [8] (pH 6.8, 30° C.). Further, the MIC in assay [8] (pH 8.2, 30° C.) is under 10 µg/mL.
